Where two headings read alike, the source gives them in different places.
How the values were obtained:
[1] = test system: human NSCLC cell line NCI-H1975; type: in vivo; conditions: 3 doses, day 32, SCID mice
Method: FBS was obtained from ATCC and all other reagents were obtained from Invitrogen Corp. (Carlsbad, Calif., USA). Cells that had been cryopreserved in liquid nitrogen were rapidly thawed at 37° C. and transferred to a tissue culture flask containing growth media and then incubated at 37° C. in a 5% CO2 incubator. […] To inactivate the trypsin, 5 mL of growth media was added and then the contents of the flask were centrifuged to pellet the cells. The supernatant was aspirated and the cell pellet was resuspended in 10 mL of growth media and the cell number determined using a hemocytometer. Cells were seeded into 175 cm^2 flasks containing 50 mL of growth media and incubated at 37° C. in a 5% CO2 incubator.
(§1) Animals were housed 4-5/cage in micro-isolators, with a 12 hr/12 hr light/dark cycle, acclimated for at least 1 week prior to use and fed normal laboratory chow ad libitum.

H1975 cells = test: Single agent IC50 in H1975 cells, alamarBlue viability (Example 2); type: cell-based, human; conditions: XLFit
Method: After 72 h exposure to either drug, viability was determined by alamarBlue, data from which was used to calculate the IC50 values using XLFit software (ID Business Solutions).

[2] = test system: NCI-H1975 non-small cell lung carcinoma cells; test: Single agent IC50, alamarBlue cell viability (Example 3), NCI-H1975; type: cell-based, human; conditions: XLFit
Method: (§2) Cell viability was measured using the alamarBlue assay. In brief, cells were plated in 96-well plates in triplicate at 2000 cells per well (H1975) or 5000 cells per well (HEL92.1.7) and incubated at 37° C., 5% CO2 atmosphere for 24 hr prior to the addition of drug or vehicle (0.3% DMSO) to the culture medium. After 72 hr, 10 μl/well alamarBlue was added to the wells and incubated for an additional 3 hr at 37° C., 5% CO2 atmosphere. Fluorescence (560EX/590EM […]) was measured with a SpectraMax microplate reader (Molecular Devices) and the resulting data were used to calculate cell viability, normalized to vehicle control. […] After 72 hr exposure to drug, cell viability was measured.

[3] = test system: HEL92.1.7 erythroleukemia cells; test: Single agent IC50, alamarBlue cell viability (Example 3), HEL92.1.7; type: cell-based, human; conditions: XLFit
Method: as §2

HT29 colon cancer cells = test: Single agent IC50, alamarBlue cell viability (Example 3), HT29; type: cell-based, human; conditions: XLFit
[4] = test system: HCC827 human non-small cell lung cancer (NSCLC) cells; type: in vivo; conditions: day 40, SCID mice
Excerpt: as §1

[5] = 72 hr exposure, read-out: Single agent IC50 values, HEL-92.1.7

Question: For CC(C)c1cc(-c2nnc(O)n2-c2ccc3c(ccn3C)c2)c(O)cc1O [Compound 1, 3-(2,4-dihydroxy-5-isopropyl-phenyl)-4-(1-methyl-indol-5-yl)-5-hydroxy-[1,2,4] triazole], which “% T/C value” ([1]; Compound 1 50 mg/kg i.v. 1 time per week) is on record?
Answer: 55%

Question: What about the IC50 (H1975 cells; Homo sapiens, NCI-H1975, 72 h exposure) of the same compound?
Answer: 15 nM

Question: What about the IC50 ([2]; Homo sapiens, NCI-H1975, 72 hr exposure) of the same compound?
Answer: 13 nM

Question: And the IC50 ([3]; Homo sapiens, HEL 92.1.7, 72 hr exposure)?
Answer: 32 nM

Question: What about the IC50 (HT29 colon cancer cells; Homo sapiens, HT-29, 72 hr exposure) of the same compound?
Answer: 36 nM

Question: What about the “% T/C value” ([4]; Compound 1 75 mg/kg 1×/week) of the same compound?
Answer: 26%

Question: Which results are given for CC(=O)O[C@@]12CO[C@@H]1C[C@H](O)[C@@]1(C)C(=O)[C@H](O)C3=C(C)[C@@H](OC(=O)[C@H](O)[C@@H](NC(=O)OC(C)(C)C)c4ccccc4)C[C@@](O)([C@@H](OC(=O)c4ccccc4)[C@H]21)C3(C)C [docetaxel]?
Answer: IC50 ([2]; 72 hr exposure): 1 nM; IC50 [3, 5]: 14 nM; IC50 (HT29 colon cancer cells; 72 hr exposure): 0.6 nM; % T/C value ([4]; docetaxel 4 mg/kg 1×/week): 46%

Question: CC(=O)O[C@H]1C(=O)[C@@]2(C)[C@H]([C@H](OC(=O)c3ccccc3)[C@]3(O)C[C@H](OC(=O)[C@H](O)[C@@H](NC(=O)c4ccccc4)c4ccccc4)C(C)=C1C3(C)C)[C@]1(OC(C)=O)CO[C@@H]1C[C@@H]2O [paclitaxel] was tested. Which “% T/C value” ([1]; paclitaxel 7.5 mg/kg i.v. 1 time per week) did it give?
Answer: 38%

Question: What about the IC50 (H1975 cells; 72 h exposure) of the same compound?
Answer: 7 nM

Question: What about the IC50 ([2]; 72 hr exposure) of the same compound?
Answer: 4 nM

Question: What about the IC50 [3, 5] of the same compound?
Answer: 25 nM

From patent publication US20120245186A1, “COMBINATION CANCER THERAPY WITH HSP90 INHIBITORY COMPOUNDS” (SYNTA PHARMACEUTICALS CORP., priority 2009, published 2012)
